Measurements as given in patent US20070244140A1, “Anilino-pyrimidine phenyl and benzothiophene analogs” (Wyeth, priority 2006, published 2007).

| SMILES | melting point [°C] |
| --- | --- |
| O=S(=O)(c1ccc(Nc2nccc(-c3ccc(C(F)(F)F)cc3)n2)cc1)N1CCOCC1 [Exemplary Compound 39, N-[4-(Morpholin-4-ylsulfonyl)phenyl]-4-[4-(trifluoromethyl)phenyl]pyrimidin-2-amine] | 240 to 241 |
| O=S(=O)(NCCCO)c1ccc(Nc2nccc(-c3ccc(C(F)(F)F)cc3)n2)cc1 [Exemplary Compound 68, N-(3-hydroxypropyl)-4-({4-[4-(trifluoromethyl)phenyl]pyrimidin-2-yl}amino)-benzenesulfonamide] | 204 to 205 |
